# Data published in patent US6630471B1, “Substituted triazolo-pyridazine derivative, pharmaceutical compositions made therefrom” (Merck Sharp & Dohme Ltd., priority 1998, dated 2003).
# Columns and labels:
# [1] = moisture vapour sorption (adsorption/desorption isotherm); assay type: physicochemical
# Protocol: These moisture vapour sorption studies show formation of a dihydrate above 80% relative humidity (RH) at 25° C. Hysteresis indicative of hydrate formation is seen to occur, with desorption occurring below ca. 60% RH.
# aqueous solubility = assay type: physicochemical
# Description: This conversion is slow due to the low aqueous solubility of Compound I in relation to the large excess of solid compound slurried.
smiles,measurement,setting,value
"CCn1ncnc1COc1nn2c(-c3ccccc3F)nnc2cc1C(C)(C)C [Compound I polymorph A, 7-(1,1-Dimethylethyl)-6-(2-ethyl-2H-1,2,4-triazol-3-ylmethoxy)-3-(2-fluorophenyl)-1,2,4-triazolo[4,3-b]pyridazine]",relative humidity of dihydrate formation,"[1]; 25° C., adsorption",above 80 % relative humidity (RH)
same,relative humidity of desorption (hysteresis),"[1]; 25° C., desorption",< 60 % RH
"CCn1ncnc1COc1nn2c(-c3ccccc3F)nnc2cc1C(C)(C)C [dihydrate of polymorph A, 7-(1,1-Dimethylethyl)-6-(2-ethyl-2H-1,2,4-triazol-3-ylmethoxy)-3-(2-fluorophenyl)-1,2,4-triazolo[4,3-b]pyridazine]",stability of the dihydrate,[1]; humidity,"stable, but only at elevated humidities"
"CCn1ncnc1COc1nn2c(-c3ccccc3F)nnc2cc1C(C)(C)C [Compound I, 7-(1,1-Dimethylethyl)-6-(2-ethyl-2H-1,2,4-triazol-3-ylmethoxy)-3-(2-fluorophenyl)-1,2,4-triazolo[4,3-b]pyridazine]",aqueous solubility,aqueous solubility,low
